Consider 31 compounds from patent EP1268431B1 (Wyeth, priority 2000, dated 2001).

Each structure is given as a SMILES string. Several values for one entry are separate records, joined by “and”; a condition that tells them apart may be missing. Equal values may be shown once. Read-outs that look alike come from different tables or passages of the source.

For assay [1], the system named is Rat2 fibroblasts stably transformed with a plasmid containing a CMV promotor controlled v-Src/Hu c-Src fusion gene. Briefly: Anchorage Independent Src-transformed Fibroblast Proliferation Assay.
The target of assay [2] is T1, c-Src (Homo sapiens, UniProt P12931).
T1 construct: purchased Upstate Biotechnologies
T1 sequence (P12931 whole entry, species assumed): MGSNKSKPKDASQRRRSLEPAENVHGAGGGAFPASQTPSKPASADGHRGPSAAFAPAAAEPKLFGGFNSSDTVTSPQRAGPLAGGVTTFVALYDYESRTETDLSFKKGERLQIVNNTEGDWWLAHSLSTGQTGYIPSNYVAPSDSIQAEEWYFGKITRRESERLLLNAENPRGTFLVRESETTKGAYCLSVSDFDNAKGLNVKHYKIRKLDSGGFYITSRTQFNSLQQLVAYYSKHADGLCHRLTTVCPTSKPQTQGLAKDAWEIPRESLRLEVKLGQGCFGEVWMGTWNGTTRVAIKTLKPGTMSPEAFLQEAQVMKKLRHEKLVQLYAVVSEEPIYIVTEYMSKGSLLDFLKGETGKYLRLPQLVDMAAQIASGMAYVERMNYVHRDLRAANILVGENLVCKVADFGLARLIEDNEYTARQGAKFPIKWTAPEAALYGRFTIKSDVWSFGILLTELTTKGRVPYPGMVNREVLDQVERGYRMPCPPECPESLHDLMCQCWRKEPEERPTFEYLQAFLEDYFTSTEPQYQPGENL
Nature of the assay: c-Src Kinase Assay (ELISA format). Format: biochemical. Summed up:
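Partially purified Src preincubated with compound and biotinylated peptide 10 min at 30 °C in Tris-HCl pH 7.5 with MgCl2, EGTA, vanadate; ATP-started reaction ran 1 h at 30 °C, EDTA-stopped. Phosphopeptide captured on streptavidin, detected by HRP anti-phosphotyrosine; % inhibition = (1 − Abs/Abs(max)) × 100.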

Setting [3] is: Rattus norvegicus, Rat2, 120 h, read-out: anch-indep src-tx fib IC50, suspension growth, MTS on Day 5.
[4] abbreviates: read-out: anch-indep src-tx fib IC50, suspension growth, MTS on Day 5.

For `COc1cc(Nc2c(C#N)cnc3cc(-c4ccc(CN(C)C)cc4)ccc23)c(Cl)cc1Cl` [Example 86, 4-(2,4-Dichloro-5-methoxyanilino)-7-{4-[(dimethylamino)methyl]phenyl}-3-quinolinecarbonitrile], the IC50 was found to be 210 nM in assay [1] (setting [3]) and 1.1 nM in assay [2].
For `CCN(CC)Cc1ccc(-c2ccc3c(Nc4cc(OC)c(Cl)cc4Cl)c(C#N)cnc3c2)cc1` [Example 87, 4-(2,4-Dichloro-5-methoxyanilino)-7-{4-[(diethylamino)methyl]phenyl}-3-quinolinecarbonitrile], in that order: 220 nM and 0.46 nM.
As to `COc1cc(Nc2c(C#N)cnc3cc(-c4ccc(CNCCS(C)(=O)=O)cc4)ccc23)c(Cl)cc1Cl` [Example 88, 4-(2,4-Dichloro-5-methoxyanilino)-7-[4-({[2-(methylsulfonyl)ethyl]amino}methyl)phenyl]-3-quinolinecarbonitrile], the results for the IC50 in assay [1] (setting [3]) and in assay [2] were 850 nM and 3 nM, respectively.
In the case of `COc1ccc(C#Cc2ccc3c(Nc4cc(OC)c(Cl)cc4Cl)c(C#N)cnc3c2)cc1` [Example 90, 4-(2,4-Dichloro-5-methoxyanilino)-7-[2-(4-methoxyphenyl)ethynyl]-3-quinolinecarbonitrile], the IC50 in assay [1] (setting [3]) was greater than 10000 nM. In assay [2] (at 100 nM), this compound yielded an inhibition at 0.1 µM of 10%.
Take `COc1cc(Nc2c(C#N)cnc3cc(C#Cc4ccccn4)ccc23)c(Cl)cc1Cl` [Example 91, 4-(2,4-Dichloro-5-methoxyanilino)-7-[2-(2-pyridinyl)ethynyl]-3-quinolinecarbonitrile]: the half-maximal inhibitory concentration (IC50) in assay [1] (setting [3]) was greater than 10000 nM; in assay [2], 3.1 nM.
For `COc1cc(Nc2c(C#N)cnc3cc(-n4cccc4CN(C)C)ccc23)c(Cl)cc1Cl` [Example 93], the half-inhibitory concentration (IC50) in assay [1] (setting [4]) is greater than 10000 nM; in assay [2], 610 nM and 680 nM.
On to `COc1cc(Nc2c(C#N)cnc3cc(/C=C/C(=O)O)ccc23)c(Cl)cc1Cl` [Example 99, (E)-3-[3-Cyano-4-(2,4-dichloro-5-methoxyanilino)-7-quinolinyl]-2-propenoic acid], for which the IC50 was greater than 10000 nM in assay [1] (setting [3]) and 44 nM in assay [2].
Regarding `COc1cc(Nc2c(C#N)cnc3cc(-c4ccc(CN5CCC(CC(=O)O)CC5)cc4)ccc23)c(Cl)cc1Cl` [Example 100, (1-{4-[3-Cyano-4-(2,4-dichloro-5-methoxyanilino)-7-quinolinyl]benzyl}-4-piperidinyl)acetic acid], the IC50 worked out at 340 nM in assay [1] (setting [3]), 400 nM in assay [1] (setting [4]) and 0.57 nM in assay [2].
Consider `COc1cc(Nc2c(C#N)cnc3cc(-c4ccc(CO)cc4)ccc23)c(Cl)cc1Cl` [Example 101, 4-(2,4-Dichloro-5-methoxyanilino)-7-[4-(hydroxymethyl)phenyl]-3-quinolinecarbonitrile], for which the concentration for half-maximal inhibition (IC50) was greater than 10000 nM in assay [1] (setting [3]) and 15 nM in assay [2].
For `COc1cc(Nc2c(C#N)cnc3cc(-c4ccc(CCl)cc4)ccc23)c(Cl)cc1Cl` [Example 102, 7-[4-(Chloromethyl)phenyl]-4-(2,4-dichloro-5-methoxyanilino)-3-quinolinecarbonitrile], in that order: 7500 nM and 18 nM.
On to `COc1cc(Nc2c(C#N)cnc3cc(-c4ccc[nH]4)ccc23)c(Cl)cc1Cl` [Example 104, 4-(2,4-Dichloro-5-methoxyanilino)-7-(1H-pyrrol-2-yl)-3-quinolinecarbonitrile], for which the IC50 in assay [1] (setting [3]) amounted to 560 nM; in assay [2], 14 nM.
`COc1cc(Nc2c(C#N)cnc3cc(-c4ccc(-c5nnn[nH]5)cc4)ccc23)c(Cl)cc1Cl` [Example 105]: the IC50 in assay [1] (setting [3]) is greater than 10000 nM; in assay [1] (setting [4]), 5900 nM; in assay [2], 10 nM.
For `COc1cc(Nc2c(C#N)cnc3cc(-c4ncccc4CN4CCOCC4)ccc23)c(Cl)cc1Cl` [Example 111, 4-(2,4-Dichloro-5-methoxyanilino)-7-[3-(morpholin-4-ylmethyl)-pyridin-2-yl]-3-quinolinecarbonitrile], the results for the IC50 in assay [1] (setting [3]) and in assay [2] were greater than 10000 nM and 410 nM, respectively.
Take `COc1cc(Nc2c(C#N)cnc3cc(-c4cccc(CN5CCN(C)CC5)c4)ccc23)c(Cl)cc1Cl` [Example 113, 4-(2,4-Dichloro-5-methoxyanilino)-7-{3-[(4-methyl-1-piperazinyl)methyl]phenyl}-3-quinolinecarbonitrile]: the IC50 in assay [1] (setting [3]) came to 1400 nM; in assay [2] it was 10 nM.
The like results for `COc1cc(Nc2c(C#N)cnc3cc(-c4ccccc4C=O)ccc23)c(Cl)cc1Cl` [Example 114, 4-(2,4-Dichloro-5-methoxyanilino)-7-(2-formylphenyl)-3-quinolinecarbonitrile] were, in that order, greater than 10000 nM and 2200 nM.
The like results for `COc1cc(Nc2c(C#N)cnc3cc(-c4ccccc4CN4CCOCC4)ccc23)c(Cl)cc1Cl` [Example 115, 4-(2,4-Dichloro-5-methoxyanilino)-7-[2-(4-morpholinylmethyl)phenyl]-3-quinolinecarbonitrile] were, in that order, greater than 10000 nM and 5000 nM.
Turning to `COc1cc(Nc2c(C#N)cnc3cc(-c4cccc5ccccc45)ccc23)c(Cl)cc1Cl` [Example 116, 4-(2,4-Dichloro-5-methoxyanilino)-7-(1-naphthyl)-3-quinolinecarbonitrile], in assay [1] (setting [3]), the half-maximal inhibitory concentration (IC50) is greater than 10000 nM. Moreover, in assay [2] (at 10 µM), the inhibition at 10 µM is 25%.
As to `COc1cc(Nc2c(C#N)cnc3cc(-c4ccc5ccccc5c4)ccc23)c(Cl)cc1Cl` [Example 117, 4-(2,4-Dichloro-5-methoxyanilino)-7-(2-naphthyl)-3-quinolinecarbonitrile], the IC50 in assay [1] (setting [3]) is 6900 nM; in assay [2] it was 210 nM and 160 nM and 120 nM.
Turning to `COc1cc(Nc2c(C#N)cnc3cc(-c4cccc(NC(C)=O)c4)ccc23)c(Cl)cc1Cl` [Example 118, N-{3-[3-Cyano-4-(2,4-dichloro-5-methoxyanilino)-7-quinolinyl]phenyl}acetamide], the IC50 in assay [1] (setting [3]) came out at 3000 nM; in assay [2] it was 160 nM.
In the case of `COc1cc(Nc2c(C#N)cnc3cc(-c4cc5ccccc5o4)ccc23)c(Cl)cc1Cl` [Example 119, 7-(1-Benzofuran-2-yl)-4-(2,4-dichloro-5-methoxyanilino)-3-quinolinecarbonitrile], the concentration for half-maximal inhibition (IC50) in assay [1] (setting [3]) was greater than 10000 nM; in assay [2] it was 130 nM.
In the case of `COc1cc(Nc2c(C#N)cnc3cc(-c4cc5ccccc5s4)ccc23)c(Cl)cc1Cl` [Example 120], the results for the IC50 in assay [1] (setting [4]) and in assay [2] were greater than 10000 nM and 170 nM, respectively.
Consider `COc1cc(Nc2c(C#N)cnc3cc(-c4ccc(C(=O)O)cc4)ccc23)c(Cl)cc1Cl` [Example 121, 4-[3-Cyano-4-(2,4-dichloro-5-methoxyanilino)-7-quinolinyl]benzoic acid], for which the half-maximal inhibitory concentration (IC50) was greater than 10000 nM in assay [1] (setting [3]); 4.8 nM and 1.8 nM in assay [2].
On to `COc1ccc(Cl)c(Nc2c(C#N)cnc3cc(-c4csc(CN5CCOCC5)c4)ccc23)c1` [Example 131, 4-(2-chloro-5-methoxyanilino)-7-[5-(4-morpholinylmethyl)-3-thienyl]-3-quinolinecarbonitrile], for which the IC50 in assay [1] (setting [3]) turned out to be 90 nM; in assay [2], 2 nM.
As for `COc1cc(Nc2c(C#N)cnc3cc(-c4ccc(CN5CCOCC5)c(CN5CCOCC5)c4)ccc23)c(Cl)cc1C` [Example 133, 7-[3,4-bis(4-morpholinylmethyl)phenyl]-4-(2-chloro-5-methoxy-4-methylanilino)-3-quinolinecarbonitrile], the 50% inhibitory concentration (IC50) is 730 nM in assay [1] (setting [3]) and 7 nM in assay [2].
Consider `COc1cc(Nc2c(C#N)cnc3cc(/C=C/c4ccccc4)ccc23)c(Cl)cc1Cl` [Example 139, 4-(2,4-dichloro-5-methoxyanilino)-7-[(E)-2-phenylethenyl]-3-quinolinecarbonitrile], for which the 50% inhibitory concentration (IC50) in assay [1] (setting [3]) was greater than 10000 nM; in assay [2], 300 nM and 340 nM.
Consider `COc1cc(Nc2c(C#N)cnc3cc(C#Cc4ccccc4)ccc23)c(Cl)cc1Cl` [Example 140, 4-(2,4-dichloro-5-methoxyanilino)-7-(2-phenylethynyl)-3-quinolinecarbonitrile], for which the IC50 in assay [1] (setting [3]) was greater than 10000 nM; in assay [2], 240 nM and 200 nM.
`COc1cc(Nc2c(C#N)cnc3cc(C#Cc4ccc(C)cc4)ccc23)c(Cl)cc1Cl` [Example 141, 4-(2,4-dichloro-5-methoxyanilino)-7-[2-(4-methylphenyl)ethynyl]-3-quinolinecarbonitrile]: the results for the IC50 in assay [1] (setting [3]) and in assay [2] were greater than 10000 nM and 750 nM, respectively.
The like results for `COc1cc(Nc2c(C#N)cnc3cc(/C=C/C(=O)OC(C)(C)C)ccc23)c(Cl)cc1Cl` [Example 142, tert-butyl (E)-3-[3-cyano-4-(2,4-dichloro-5-methoxyanilino)-7-quinolinyl]-2-propenoate] were, in that order, greater than 10000 nM and 31 nM.
Take `COc1cc(Nc2c(C#N)cnc3cc(C#CCO)ccc23)c(Cl)cc1Cl` [Example 143, 4-(2,4-dichloro-5-methoxyanilino)-7-(3-hydroxy-1-propynyl)-3-quinolinecarbonitrile]: the results for the IC50 in assay [1] (setting [3]) and in assay [2] were greater than 10000 nM and 26 nM, respectively.
For the compound `CCOC(=O)CC1CCN(Cc2ccc(-c3ccc4c(Nc5cc(OC)c(Cl)cc5Cl)c(C#N)cnc4c3)cc2)CC1` [Example 144, ethyl (1-{4-[3-cyano-4-(2,4-dichloro-5-methoxyanilino)-7-quinolinyl]benzyl}-4-piperidinyl)acetate], the IC50 turned out to be 92 nM in assay [1] (setting [3]) and 4 nM in assay [2].
On to `CCOC(=O)C1CCCCN1Cc1ccc(-c2ccc3c(Nc4cc(OC)c(Cl)cc4Cl)c(C#N)cnc3c2)cc1` (stereo not shown) [Example 145, ethyl 1-{4-[3-cyano-4-(2,4-dichloro-5-methoxyanilino)-7-quinolinyl]benzyl}-2-piperidinecarboxylate], for which the IC50 in assay [1] (setting [3]) was greater than 10000 nM. This compound gave an inhibition at 0.01 µM in assay [2] (at 10 nM) of 17%.
